Results taken from patent publication US20230181602A1, “TREATMENT OF NON-ALCOHOLIC STEATOHEPATITIS (NASH)” (DURECT CORPORATION, priority 2020, published 2023).
Marks after values point to notes of the source that are not given here.

Tests used:
NASH patients = conditions: between 50 mg and 200 mg oral dose levels; cited from earlier work
[1] = Single dose safety and pharmacokinetic study in subjects with NASH and control healthy subjects; type: in vivo, human
Experimental: The present Example was a randomized, dose ranging, single dose safety and pharmacokinetic study of 25HC3S administered to subjects with NASH and control healthy subjects. […] For each cohort, 10 subjects with NASH were enrolled which were further classified into cirrhotic and non-cirrhotic. Each subject received only one dose of study treatment. The second cohort was dosed after a review of safety and tolerability data from Cohort 1.

[2] = test system: NASH patients with stage 1-3 fibrosis; assay: Phase 1b study in NASH patients: safety; type: in vivo, human; conditions: 4 weeks oral
Experimental: A total of 63 patients completed the study with 21 patients per dose group (completion of MRI-PDFF measurement). 25HC3 S sodium was orally administered daily at 50 mg, 150 mg, or 600 mg (300 mg BID). […] Subjects provided written informed consent to participate in the study • 2. Males or females subjects 18 years or older, at the time of signing informed consent • 3. BMI 20-45 kg/m^2 • 4. […] Value of Fibroscan® ≥7 kPa • OR • b. MRE ≥2.75 kPa • *Clinical diagnosis of NASH was defined in this clinical trial as the existence of one or more of the following risk factors for NASH, namely: • a. Type 2 diabetes or elevated fasting blood sugar • b. Abdominal obesity • c. Elevated lipid levels, especially elevated levels of serum triglycerides • d. Hypertension, or • e. Low levels of HDL cholesterol • 5. For serum transaminases, ALT concentration for all patients at the time of screening was >1 and <5 times upper limit of normal (ULN) of the central lab in the absence of another cause of liver disease. If a patient had lab records in the past 6 months, ALT concentrations were <20 U/L female and <30 U/L male. AST concentration for all patients at the time of screening was <5× ULN • 6. […] Platelet counts ≥120,000/mm^3 • 8. […]

[3] = test system: NASH patients with stage 1-3 fibrosis; assay: Phase 1b study in NASH patients, 4-week daily oral dosing: pharmacodynamic signals; type: in vivo, human; conditions: for Mean Non-HDL to Baseline / Mean TG to Baseline / Median Non-HDL to Baseline / Median TG to Baseline: day 28 after dosing
Experimental: (§1) A total of 63 patients completed the study with 21 patients per dose group (completion of MRI-PDFF measurement). 25HC3 S sodium was orally administered daily at 50 mg, 150 mg, or 600 mg (300 mg BID). […] Subjects provided written informed consent to participate in the study • 2. Males or females subjects 18 years or older, at the time of signing informed consent • 3. BMI 20-45 kg/m^2 • 4. […] Value of Fibroscan® ≥7 kPa • OR • b. MRE ≥2.75 kPa • *Clinical diagnosis of NASH was defined in this clinical trial as the existence of one or more of the following risk factors for NASH, namely: • a. Type 2 diabetes or elevated fasting blood sugar • b. Abdominal obesity • c. Elevated lipid levels, especially elevated levels of serum triglycerides • d. Hypertension, or • e. Low levels of HDL cholesterol • 5. For serum transaminases, ALT concentration for all patients at the time of screening was >1 and <5 times upper limit of normal (ULN) of the central lab in the absence of another cause of liver disease. If a patient had lab records in the past 6 months, ALT concentrations were <20 U/L female and <30 U/L male. AST concentration for all patients at the time of screening was <5× ULN • 6. […] Platelet counts ≥120,000/mm^3 • 8. Female subjects were eligible for the study if they met the following criteria: • Are not pregnant or nursing • Women of child-bearing potential (defined as females who are not surgically sterile or who are not over the age of 52 and amenorrheic for at least 12 months) must utilize appropriate birth control throughout the study duration. Acceptable methods that may be used are abstinence, birth control pills (“The Pill”) or patch, diaphragm, IUD (coil), vaginal ring, condom, surgical sterilization or progestin implant or injection, or sexual activity limited to a sterile (e.g., vasectomized) male partner • 9. Male participants agreed to consistently and correctly use a condom in combination with one of the above methods of birth control from enrollment to 30 days after the last dose of study medication • 10. Participants were able to comply with dosing and able to complete the study schedule of assessments

[4] = Metabolite profiling of plasma, urine and feces after intravenous dose in rats; type: in vivo, Sprague Dawley rats; conditions: intravenous 10 mg/kg, up to 1 hour postdose
Experimental: Nine male Sprague Dawley rats (Group 1) were designated for the pharmacokinetic phase, 3 male Sprague Dawley rats (Group 2) for the excretion mass balance phase, and 7 male Sprague Dawley rats (Group 3) and 9 male Long Evans rats (Group 4) for the tissue distribution phase. All animals received a single intravenous dose of [^14C]-25HC3S at 10 mg/kg and a target radioactivity of 225 μCi/kg. Blood samples were collected from all Group 1 animals at approximately 0.083, 0.25, 0.5, 1, 2, 4, 8, 12, 24, 48, and 72 hours post-dose. Urine and feces were collected from all Group 2 animals periodically through 168 hours post-dose. […] Following blood collection, animals were euthanized by CO2 inhalation and carcasses frozen in a dry ice/hexane bath for processing by quantitative whole body autoradiography. Whole blood, plasma, urine, feces, cage rinse, and cage wash were analyzed for total radioactivity by liquid scintillation counting.
Plasma pools were made from Group 1 rats at the 0.083, 0.25, 0.5, and 1-hour collection time points.
Urine pools were prepared for Group 2 at 0 to 6 and 6 to 12 hours postdose. The largest component present was attributed to the parent 25HC3 S representing about 78% to 93% of the radioactivity. […]

[5] = Phase 1b study in NASH patients: pharmacokinetics; type: in vivo, human; conditions: for CL/F: NASH patients, mean
Experimental: as §1
The pharmacokinetics of administered 25HC3 S was determined.

[6] = 50 mg QD, 4 weeks oral, patients with ≥10% reduction in MRI-PDFF, Day 28 vs baseline
[7] = 50 mg QD, 4 weeks oral, patients with ≥10% reduction in MRI-PDFF, Day 28 vs baseline, listed as 25HC3 S
[8] = 300 mg BID, 4 weeks oral, patients with ≥10% reduction in MRI-PDFF, Day 28 vs baseline
[9] = 300 mg BID, 4 weeks oral, patients with ≥10% reduction in MRI-PDFF, Day 28 vs baseline, listed as 25HC3 S
[10] = all on a statin except one outlier (n = 19)
[11] = all patients on a statin (n = 20)

C[C@H](CCCC(C)(C)O)[C@H]1CC[C@H]2[C@@H]3CC=C4C[C@@H](OS(=O)(=O)O)CC[C@]4(C)[C@H]3CC[C@]12C [25HC3S, 5-cholesten-3,25-diol, 3-sulfate]
dose-dependent changes of biological responses (NASH patients): no dose-dependent changes of biological responses | difference between healthy and NASH subjects in pharmacokinetics (Cmax and AUC) ([1]; 50 mg and 200 mg): no clear difference | increase of AUC0-last, AUCinf and Cmax with increasing dose ([1]; 50 mg to 200 mg): less than proportional | geometric mean AUC0-12 and AUC0-last, NASH versus healthy subjects ([1]; Cohort 1 (50 mg)): similar | AUC0-inf, higher in NASH subjects than healthy ([1]; Cohort 2 (200 mg)): approximately 20% | increase of geometric mean Cmax in NASH subjects over healthy subjects ([1]; Cohorts 1 and 2): 18-24% | increase in both Cmax and AUC parameters for a four-fold increase in dose ([1]; NASH subjects, 50 mg to 200 mg): three-fold | increase in mean Cmax for a four-fold increase in dose ([1]; healthy subjects, 50 mg to 200 mg): three-fold | Mean % AUCexp ([1]; human, in vivo): low | tolerability ([2]; all three doses (50 mg, 150 mg, 600 mg daily)): well tolerated | drug related serious adverse events ([2]; all three doses): no drug related serious adverse events observed | Non-HDL-C, median change ([3]; 50 mg QD, 4 weeks oral, all patients, Day 28 vs baseline): −8% | APRI score, median change [3, 6]: −27%*** | AST, median change [3, 6]: −24%** | FIB-4 score, median change [3, 6]: −19%** | GGT, median change [3, 6]: −13%*** | APRI score, median change [3, 7]: −27% | AST, median change [3, 7]: −24% | FIB-4 score, median change [3, 7]: −19% | GGT, median change [3, 7]: −13% | GGT, median change ([3]; 150 mg QD, 4 weeks oral, all patients, Day 28 vs baseline): −1% | APRI score, median change [3, 8]: −36%*** | AST, median change [3, 8]: −39%*** | FIB-4 score, median change [3, 8]: −21%*** | APRI score, median change [3, 9]: −36% | AST, median change [3, 9]: −39% | FIB-4 score, median change [3, 9]: −21% | Mean Non-HDL to Baseline [3, 10]: −11% | Mean TG to Baseline [3, 10]: −10% | Median Non-HDL to Baseline [3, 10]: −10% | Median TG to Baseline [3, 10]: −9% | Mean Non-HDL to Baseline [3, 11]: −9% | Mean TG to Baseline [3, 11]: −2% | Median Non-HDL to Baseline [3, 11]: −9% | Median TG to Baseline [3, 11]: −6% | enzyme levels (e.g., ALT, AST, GGT) ([3]; high dose (300 mg BID)): improved enzyme levels | patients who showed ≥10% liver fat reduction from baseline as measured by MRI-PDFF ([3]; in each dose group (50 mg, 150 mg, 600 mg daily), after 4-week dosing): 43% | serum triglycerides, median reduction from baseline ([3]; patients with elevated baseline triglycerides (≥200 mg/dL; n=16) across all dose groups, day 28): −24% | reduction in serum triglycerides ([3]; patients with elevated baseline triglycerides (≥200 mg/dL; n=16) across all dose groups, day 28 from baseline): 24% | share of the exposure (AUC) to related radioactivity in plasma [4]: approximately 54% | CL/F ([5]; 50 mg QD oral): 150.6 L/h | dose dependence of PK parameters ([5]; 50 mg, 150 mg, 600 mg daily): dose dependent | CL/F ([5]; 150 mg QD oral): 176.6 L/h | CL/F ([5]; 300 mg BID oral): 166.2 L/h | PK parameters after repeat dosing versus single dose ([5]; 4-week daily oral dosing): comparable to those after a single dose
